In brackets after ≈: the same amount, converted by molar mass. Several values for one entry are separate records, joined by “and”; a condition that tells them apart may be missing. Equal values may be shown once. Where a SMILES comes first, the peptide text is derived from it. [ ]: non-standard residue; d: D form. NMeL = CN[C@@H](CC(C)C)C(=O)O
Key:
[1] = tested on: human cervical carcinoma cell line (Hela); assay type: cell-based; settings: 48 h
Procedure: (§1) Human hepatocellular cells (HepG2), human breast cancer cells (MCF-7), human breast adenocarcinoma cells (MDA-MB-435) and a human cervical carcinoma cell line (Hela) were selected as our in vitro cancerous cell models. The cells were all cultured in DMEM medium containing 10% fetal bovine serum, 1% penicillin-streptomycin and antifungal agent, incubated at 37 °C with 5% CO2 and 90% humidity. The cytotoxicity of Galaxamide and its analogs on the four cancerous cells was evaluated using the MTT method. […] After that, 20 µL MTT reagents were added to each well and incubated between 3–5 h according to the nature of cells; the color intensity of the cell culture at 570 nm was measured using a microplate spectrophotometer. Finally, the cell viability was calculated accordingly. Note: […]

[2] = tested on: human hepatocellular cells (HepG2); assay type: cell-based; settings: 48 h
Procedure: as §1

[3] = tested on: human breast cancer cells (MCF-7); assay type: cell-based; settings: 48 h
Procedure: as §1

[4] = tested on: human breast adenocarcinoma cells (MDA-MB-435); assay type: cell-based; settings: 48 h
Procedure: as §1

HepG2 cells [5] = test: Annexin V-FITC / PI dual staining, flow cytometry (apoptosis); assay type: cell-based, human; settings: 48 h
Procedure: To further study the apoptotic mechanism of Analog-6, the Annexin V-fluorescein isothiocyanate (FITC) and propidium iodide (PI) dual staining method was used. Briefly, HepG2 cells were treated with 0, 5, 10 and 15 µg/mL Analog-6 for 48 h. Then, cells were washed several times with PBS and stained by dual staining of two fluorescent dyes, Annexin V-FITC and PI, and analyzed by flow cytometry. Results are shown in Figure 5, where HepG2 cells exposed to Galaxamide were used as the control. Note that Q1, Q2, Q3 and Q4 in the figure represent four quadrants of necrotic cells, late apoptotic cells, normal cells and early apoptotic cells, respectively.
(§2) HepG2 cells were seeded in 6-well tissue culture plates at a concentration of 1 × 10^5 cells/well. Galaxamide and its analogs with a concentration of 0, 5, 10 and 15 µg/mL were added to the cell cultures and incubated for 48 h. After that, 5 µL Annexin V-fluorescein isothiocyanate (FITC) and 5 µL of PI were added for dual staining of the cells and analyzed by FACScan flow cytometry. Cell cycle and apoptotic cells were determined by counting the FITC-positive and PI-negative fractions.

HepG2 cells [6] = test: Cell cycle analysis by propidium iodide staining, flow cytometry; assay type: cell-based, human; settings: 48 h, PI staining
Procedure: In particular, HepG2 cells were exposed to Galaxamide, Analog-4 and Analog-6 with concentrations of 0, 5, 10 and 15 µg/mL for 48 h. Generally, treatment with Galaxamide, Analog-4 and -6 all caused changes in the cell cycle of HepG2 cells, mainly in the sub-G1 stage, where a subdiploid peak was detected, indicating their apoptotic effects on HepG2 cells.
as §2

caspase-9 = test: Western blot, caspase-9 expression; assay type: cell-based, human; settings: HepG2, 15 µg/mL, 48 h
Procedure: (§3) There are two major pathways involved in cells apoptosis: the mitochondria-mediated intrinsic pathway and the death receptor-mediated extrinsic pathway. To elucidate the possible mechanism of the apoptotic effects of Analog-6, Western blot experiments were performed. HepG2 cells were treated with 0, 5, 10 and 15 µg/mL Analog-6 for 48 h, and then expression of cleaved caspase-3, caspase-9 and poly(ADP-ribose) polymerase (PARP) was quantified, results are shown in Figure 6.
(§4) Target proteins were first extracted using Radio-Immunoprecipitation Assay (RIPA) buffer and quantified by the Bradford method. Then, proteins were transferred to a polyvinylidene difluoride (PVDF) membrane, and the membrane was blocked with 5% non-fat milk for 1 h and incubated with a primary antibody (Cell Signaling Technology, Danvers, MA, USA, rabbit monoclonal antibody, 1:1000) at 4 °C overnight. After that, the membrane was washed two times with TBST buffer (Tris-buffered saline with 0.1% Tween-20) and incubated with a secondary antibody (goat-anti-rabbit horseradish peroxidase (HRP)-conjugated 1:15,000) for 1 h under room temperature. Finally, the membrane was washed three times with TBST, and the intensity of the specific immunoreactive bands was detected by enhanced chemiluminescence.

cleaved caspase-3 = test: Western blot, cleaved caspase-3 expression; assay type: cell-based, human; settings: HepG2, 15 µg/mL, 48 h
Procedure: as §3, §4

HepG2 cells [7] = test: Hoechst 33342 staining, nuclear morphology; assay type: cell-based, human; settings: HepG2, increasing concentration up to 15 µg/mL, 48 h, fluorescence microscope
Procedure: We then investigated the effect of Galaxamide and Analog-6 on the cell morphology and nuclear integrity. HepG2 cells were treated with an increasing concentration of Analog-6 for 48 h and then stained by Hoechst 33342 (a DNA fluorescent dye). The effect of Galaxamide on HepG2 cells was used as a control. Noting that Hoechst 33342 is a DNA fluorescent dye, the fluorescently-stained DNA presents a blue color under the fluorescence microscope.
HepG2 cells were seeded in 6-well tissue culture plates at a concentration of 1 × 10^5 cells/well. Galaxamide and its analogs with a concentration of 0, 5, 10 and 15 µg/mL were added to the cell cultures and incubated for 48 h. After that, cells were fixed with 3.7% of paraformaldehyde for 10 min and washed three times with PBS. Then, Hoechst 33342 was added for cell staining, then visualized using a fluorescent microscope.

[8] = tested on: poly(ADP-ribose) polymerase (PARP); test: Western blot, cleaved PARP expression; assay type: cell-based, human; settings: HepG2, 15 µg/mL, 48 h
Procedure: as §3, §4

[9] = tested on: human hepatocellular carcinoma HepG2; settings: in vitro, HepG2 cell line; cited from earlier work
Source text: (§5) In our initial work, a novel cyclic-pentapeptide named Galaxamide was isolated from a marine algae Galaxaura filamentosa collected from Xisha Island in the South China Sea. Galaxamide is a cyclic-pentapeptide composed of five L-leucines, including two N-methylated ones. N-methylated amino acid is an important component endowing the anticancer potential to the cyclopeptides.

[10] = tested on: human renal cell carcinoma GRC-1; settings: in vitro, GRC-1 cell line; cited from earlier work
Source text: as §5

[11] = tested on: human normal liver cell line L02; settings: cited from earlier work
Source text: In our previous work, we synthesized several Galaxamide analogs and tested their cytotoxicity on a normal cell line (human normal liver cell line L02) and a broad range of cancerous cell lines in vitro.

IC50 (µg/mL) in Different Cell Lines, Hela [1] [µg/mL]	IC50 (µg/mL) in Different Cell Lines, HepG2 [2] [µg/mL]	IC50 (µg/mL) in Different Cell Lines, MCF-7 [3] [µg/mL]	IC50 (µg/mL) in Different Cell Lines, MDA-MB-435 [4] [µg/mL]	Compound	G0/G1 cells (HepG2 cells [6]; HepG2, 5 µg/mL) [%]	G2/M cells (HepG2 cells [6]; HepG2, 5 µg/mL) [%]	S cells (HepG2 cells [6]; HepG2, 5 µg/mL) [%]	Sub-G1 cells (HepG2 cells [6]; HepG2, 5 µg/mL) [%]	G0/G1 cells (HepG2 cells [6]; HepG2, 10 µg/mL) [%]	G2/M cells (HepG2 cells [6]; HepG2, 10 µg/mL) [%]	S cells (HepG2 cells [6]; HepG2, 10 µg/mL) [%]	Sub-G1 cells (HepG2 cells [6]; HepG2, 10 µg/mL) [%]	G0/G1 cells (HepG2 cells [6]; HepG2, 15 µg/mL) [%]	G2/M cells (HepG2 cells [6]; HepG2, 15 µg/mL) [%]	S cells (HepG2 cells [6]; HepG2, 15 µg/mL) [%]	Sub-G1 cells (HepG2 cells [6]; HepG2, 15 µg/mL)	also measured
4.39 ± 0.26 (≈ 6.99 µM)	7.71 ± 0.11 (≈ 12.3 µM)	18.16 ± 0.33 (≈ 28.9 µM)	12.6 ± 0.29 (≈ 20.1 µM)	CC(C)C[C@@H]1NC(=O)[C@H](CC(C)C)N(C)C(=O)[C@H](CC(C)C)NC(=O)[C@@H](CC(C)C)N(C)C(=O)[C@H](Cc2ccccc2)NC1=O [Analog-3, Cyclo(Me-Leu-Leu-Phe-Me-D-Leu-Leu)]													
4.95 ± 0.18 (≈ 7.88 µM)	4.56 ± 0.22 (≈ 7.26 µM)	9.64 ± 0.27 (≈ 15.4 µM)	9.5 ± 0.32 (≈ 15.1 µM)	CC(C)C[C@@H]1NC(=O)[C@H](CC(C)C)N(C)C(=O)[C@H](CC(C)C)NC(=O)[C@H](CC(C)C)N(C)C(=O)[C@@H](Cc2ccccc2)NC1=O [Analog-2, Cyclo(Me-Leu-Leu-D-Phe-Me-Leu-Leu)]													
3.42 ± 0.25 (≈ 5.45 µM)	4.1 ± 0.20 (≈ 6.53 µM)	8.15 ± 0.18 (≈ 13 µM)	6.76 ± 0.22 (≈ 10.8 µM)	CC(C)C[C@@H]1NC(=O)[C@H](CC(C)C)N(C)C(=O)[C@H](Cc2ccccc2)NC(=O)[C@@H](CC(C)C)NC(=O)[C@H](CC(C)C)N(C)C1=O [Analog-6, Cyclo(Me-Leu-D-Leu-Phe-Me-Leu-Leu)]	61.5	21.6	16.9	3.30	56.8	14.4	28.8	5.36	88.6	4.22	7.18	67.9% and 68%	Q4, early apoptotic cells (HepG2 cells [5]; HepG2, 5 µg/mL): 7.3%; Q4, early apoptotic cells (HepG2 cells [5]; HepG2, 10 µg/mL): 16.9%; Q4, early apoptotic cells (HepG2 cells [5]; HepG2, 15 µg/mL): 49.4% and ~50%; increased fold of caspase-9 expression (caspase-9): 3.3 fold; increased fold of cleaved caspase-3 expression (cleaved caspase-3): 3.4 fold; nuclei morphology after Hoechst 33342 staining (HepG2 cells [7]): severely damaged; increased fold of PARP expression [8]: 6.8 fold
4.2 ± 0.32 (≈ 6.69 µM)	7.2 ± 0.15 (≈ 11.5 µM)	8.62 ± 0.26 (≈ 13.7 µM)	7.67 ± 0.18 (≈ 12.2 µM)	CC(C)C[C@@H]1NC(=O)[C@H](CC(C)C)N(C)C(=O)[C@@H](CC(C)C)NC(=O)[C@H](CC(C)C)N(C)C(=O)[C@H](Cc2ccccc2)NC1=O [Analog-4, Cyclo(Me-Leu-Leu-Phe-Me-Leu-D-Leu)]	70.5	9.33	20.2	1.78	64.2	12.9	22.9	7.1	67.6	5.91	26.5	35.5%	
6.85 ± 0.26 (≈ 10.9 µM)	5.85 ± 0.13 (≈ 9.32 µM)	13.03 ± 0.33 (≈ 20.8 µM)	9.76 ± 0.18 (≈ 15.5 µM)	CC(C)C[C@@H]1NC(=O)[C@H](CC(C)C)N(C)C(=O)[C@H](CC(C)C)NC(=O)[C@H](CC(C)C)N(C)C(=O)[C@H](Cc2ccccc2)NC1=O [Analog-1, Cyclo(Me-Leu-Leu-Phe-Me-Leu-Leu)]													
				CC(C)C[C@@H]1NC(=O)[C@H](CC(C)C)N(C)C(=O)[C@H](CC(C)C)NC(=O)[C@H](CC(C)C)N(C)C(=O)[C@H](CC(C)C)NC1=O [Galaxamide] (cyclo(LL[NMeL]L[NMeL]))	71.2	9.18	19.6	1.30	73.7	9.03	17.2	8.81	70.8	9.46	19.8	13.1%	Q4, early apoptotic cells (HepG2 cells [5]; HepG2, 5 µg/mL): 1.8%; Q4, early apoptotic cells (HepG2 cells [5]; HepG2, 10 µg/mL): 10.6%; Q4, early apoptotic cells (HepG2 cells [5]; HepG2, 15 µg/mL): 12.1%; IC50, antiproliferative activity, HepG2 [9]: 4.63 µg/mL (≈ 7.8 µM); IC50, antiproliferative activity, GRC-1 [10]: 4.26 µg/mL (≈ 7.17 µM); IC50, cytotoxicity on normal L02 [11]: > 40 µg/mL; nuclei morphology after Hoechst 33342 staining (HepG2 cells [7]): slight shrinking of nuclei
7.4 ± 0.33 (≈ 11.8 µM)	10.72 ± 0.32 (≈ 17.1 µM)	15.21 ± 0.29 (≈ 24.2 µM)	20.43 ± 0.23 (≈ 32.5 µM)	CC(C)C[C@@H]1NC(=O)[C@@H](CC(C)C)N(C)C(=O)[C@H](CC(C)C)NC(=O)[C@H](CC(C)C)N(C)C(=O)[C@H](Cc2ccccc2)NC1=O [Analog-5, Cyclo(Me-D-Leu-Leu-Phe-Me-Leu-Leu]													

Source: publication PMC5372560, “D-Amino Acid Position Influences the Anticancer Activity of Galaxamide Analogs: An Apoptotic Mechanism Study” (International Journal of Molecular Sciences, 2017)
